The results in this text go back to ChEMBL document CHEMBL1124341, “1',2'-seco-dideoxynucleosides as potential anti-HIV agents” (J Med Chem, 1989).

Each structure is given as a SMILES string.

Experiment [1] has as its system ATH-8 cell line. Nature of the experiment: Tested against ATH8 cells infected with HIV (2 x 10 e3 virus partials per cell) at concentration of 20 µM; Completely protected. Format: functional, cell-based. Particulars: Homo sapiens.
For experiment [2], the system named is ATH-8 cell line. Kind of experiment: Tested against ATH8 cells infected with HIV (2 x 10 e3 virus partials per cell) at concentrations ranging from 1 to 100 µM; No protection. As to conditions: Homo sapiens. The class given is functional, cell-based.

Consider `Nc1ncnc2c1ncn2[C@H]1CC[C@@H](CO)O1`, for which, in experiment [1], the Activity result was “Completely protected”. As for `CCC(CO)OCn1cnc2c(O)nc(N)nc21` (stereo not given), in experiment [2], the Activity entry is “No protection”. Still for that read-out and setting: the same measure for `CCC(CO)OCn1cnc2c(N)ncnc21` (stereo not given): “No protection”. For the compound `CCC(CO)OCn1cnc2c(O)ncnc21` (stereo not given), the Activity result in experiment [2] is “No protection”. Consider `CCC(CO)OCn1ccc(N)nc1=O` (stereo not given), for which the Activity entry in experiment [2] was “No protection”.
